Measured values published in patent US12691101B2, “Compound and method for preventing or treating of respiratory diseases comprising the same as an active ingredient” (YONSEI UNIVERSITY, UNIVERSITY - INDUSTRY FOUNDATION (UIF), priority 2019, dated 2026).

How the values were obtained:
HBE cells = conditions: IL-13-treated HBE cells; cited from earlier work
[1] = biological target: T1, human wild-type (WT)-pendrin (Homo sapiens, UniProt O43511); assay: Pendrin-mediated Cl^−/I^− exchange activity, YFP fluorescence in CHO-K1 cells; type: cell-based; conditions: CHO-K1, 30 μM; read-out: Pendrin inhibitory activity at 30 μM (%)
T1 construct: expressed in transfected cells
T1 sequence (O43511 1-780): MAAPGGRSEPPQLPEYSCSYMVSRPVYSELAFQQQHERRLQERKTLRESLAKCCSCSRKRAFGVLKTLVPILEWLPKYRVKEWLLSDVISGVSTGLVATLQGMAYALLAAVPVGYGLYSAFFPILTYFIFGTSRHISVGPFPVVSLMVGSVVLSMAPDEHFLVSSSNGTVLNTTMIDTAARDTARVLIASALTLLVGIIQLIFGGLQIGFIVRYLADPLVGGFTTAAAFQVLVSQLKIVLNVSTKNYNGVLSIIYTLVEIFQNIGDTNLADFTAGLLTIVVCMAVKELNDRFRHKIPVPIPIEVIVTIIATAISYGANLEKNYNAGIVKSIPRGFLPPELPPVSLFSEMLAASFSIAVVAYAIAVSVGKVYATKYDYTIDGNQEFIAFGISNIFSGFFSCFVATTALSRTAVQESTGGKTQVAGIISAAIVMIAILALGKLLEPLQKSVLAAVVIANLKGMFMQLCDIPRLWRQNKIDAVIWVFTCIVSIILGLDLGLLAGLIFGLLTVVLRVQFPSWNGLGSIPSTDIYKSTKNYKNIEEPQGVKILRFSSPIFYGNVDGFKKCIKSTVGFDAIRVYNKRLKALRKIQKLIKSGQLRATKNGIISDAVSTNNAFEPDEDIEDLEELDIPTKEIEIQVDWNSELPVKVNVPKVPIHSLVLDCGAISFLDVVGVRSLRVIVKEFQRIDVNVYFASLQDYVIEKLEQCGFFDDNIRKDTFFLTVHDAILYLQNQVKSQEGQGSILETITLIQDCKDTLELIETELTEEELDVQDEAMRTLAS

SMILES | ASL depth (HBE cells) | inhibition at 30 µM [1]
Cn1nc(COc2cccc(F)c2)c2c1CCN(C(=O)Nc1ccc(Cl)cc1)C2 [PDSinh-A01] | significantly increased | 
CC(C)(C)c1ccc(C2=NC(=Cc3ccc(-c4cccc(C(F)(F)F)c4)o3)C(=O)O2)cc1 [F73, 2-(4-(tert-butyl)phenyl)-4-((5-(3-(trifluoromethyl)phenyl)furan-2-yl)methylene)oxazol-5(4H)-one] |  | 2.9%
COc1ccccc1C1=NC(=Cc2ccc(OCC(N)=O)cc2)C(=O)O1 [F128, 2-(4-((2-(2-methoxyphenyl)-5-oxooxazol-4(5H)-ylidene)methyl)phenoxy)acetamide] |  | 1.9%
O=C1OC(c2cccs2)=NC1=Cc1ccc(N2CCCCC2)s1 [F120, 4-((5-(Piperidin-1-yl)thiophen-2-yl)methylene)-2-(thiophen-2-yl)oxazol-5 (4H)-one] |  | 1.9%
COc1cccc(C2=NC(=Cc3cccs3)C(=O)O2)c1 [F104, 2-(3-Methoxyphenyl)-4-(thiophen-2-ylmethylene)oxazol-5(4H)-one] |  | 3.5%
